The structures appear in SMILES notation.

For one test, the target named is T1, HDAC3 (Homo sapiens, UniProt O15379).
T1 construct: purchased from BPS Bioscience; with Nuclear receptor corepressor 2
Nature of the test: fluorogenic deacetylase assay, trypsin-coupled AMC release. It counts as biochemical.

Another test has as its target T2, HDAC1 (Homo sapiens, UniProt Q13547).
T2 construct: purchased from BPS Bioscience
Described as above. It counts as biochemical.

The target of the next test is T3, HDAC2 (Homo sapiens, UniProt Q92769).
T3 construct: purchased from BPS Bioscience
Described as above. It counts as biochemical.

A further test addresses HDAC4 (Homo sapiens, UniProt P56524). Described as above. It counts as biochemical.
A further test addresses T4, HDAC6 (Homo sapiens, UniProt Q9UBN7).
T4 sequence (Q9UBN7 1-1215): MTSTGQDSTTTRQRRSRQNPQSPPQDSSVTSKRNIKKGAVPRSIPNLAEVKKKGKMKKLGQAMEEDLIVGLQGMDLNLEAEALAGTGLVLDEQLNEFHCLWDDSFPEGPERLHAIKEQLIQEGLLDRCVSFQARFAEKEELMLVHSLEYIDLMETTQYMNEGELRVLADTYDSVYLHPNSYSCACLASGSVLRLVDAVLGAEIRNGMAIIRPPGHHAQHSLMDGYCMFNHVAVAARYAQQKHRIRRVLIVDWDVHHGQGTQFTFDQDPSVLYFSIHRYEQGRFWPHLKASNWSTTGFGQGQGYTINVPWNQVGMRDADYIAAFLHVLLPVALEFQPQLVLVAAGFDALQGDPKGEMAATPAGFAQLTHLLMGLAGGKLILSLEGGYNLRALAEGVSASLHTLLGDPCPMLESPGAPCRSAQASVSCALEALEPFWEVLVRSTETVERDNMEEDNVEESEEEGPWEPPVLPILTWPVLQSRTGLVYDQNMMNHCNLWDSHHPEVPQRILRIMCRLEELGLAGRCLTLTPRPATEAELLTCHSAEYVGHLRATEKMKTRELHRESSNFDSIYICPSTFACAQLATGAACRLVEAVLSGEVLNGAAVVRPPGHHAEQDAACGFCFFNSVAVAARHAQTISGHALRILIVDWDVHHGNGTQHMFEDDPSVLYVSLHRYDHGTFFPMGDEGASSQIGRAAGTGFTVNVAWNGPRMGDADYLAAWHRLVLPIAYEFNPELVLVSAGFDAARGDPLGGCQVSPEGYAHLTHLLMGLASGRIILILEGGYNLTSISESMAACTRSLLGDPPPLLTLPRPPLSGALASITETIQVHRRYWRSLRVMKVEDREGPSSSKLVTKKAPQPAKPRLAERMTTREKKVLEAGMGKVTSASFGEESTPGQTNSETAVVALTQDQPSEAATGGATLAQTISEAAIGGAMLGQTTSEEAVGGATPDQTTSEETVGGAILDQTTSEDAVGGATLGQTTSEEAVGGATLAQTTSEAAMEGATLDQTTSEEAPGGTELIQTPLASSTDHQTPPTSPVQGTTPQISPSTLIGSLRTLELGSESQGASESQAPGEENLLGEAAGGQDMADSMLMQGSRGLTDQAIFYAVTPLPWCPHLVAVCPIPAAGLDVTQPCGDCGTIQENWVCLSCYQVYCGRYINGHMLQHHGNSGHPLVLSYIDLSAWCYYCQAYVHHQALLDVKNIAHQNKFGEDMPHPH
Nature of the test: biochemical. On the set-up: in vitro inhibition of purified HDAC isozymes, dose response. The protocol: (§1) To confirm the ability of NKL54, MC2984 and MC2985 to act as epigenetic drugs, we examined the levels of histone H3 lysine 9 acetylation (H3K9ac) by immunoblot. SAHA triggered an increase in H3K9 acetylation within 15 min of treatment (Figure 1G). […] The increase in H3K9ac in response to MC2985 treatment was very small, almost undetectable. […] Overall, the modulation of H3K9ac and of H3K27ac levels in response to the different compounds confirms the inhibitory potency observed with the KDAC assay in vivo. Finally, we compared the in vitro inhibitory activity of SAHA and of PAOA derivatives against different purified HDACs (NKL54 was chosen as an example). The inhibitory activity of NKL54 was specific to HDAC1/2/3 (Figure 1H). […] The Tanimoto coefficient is reported for all the compounds versus the reference BML-210. *Energy calculated on the re-docked ligand extracted from the 3MU6 complex available from PDB. **Tanimoto similarity index calculated with radius 2 circular Morgan fingerprints ([73]) in a python script ([74]) using the RDKit library ([75]). […] Cell death was scored after 48 h from treatments. […] Cell death was scored after 48 h from treatments. Data are from 3 independent experiments, + S.D. (F) Lys-deacetylase activity as measured from SK-UT-1 cells treated with increasing concentrations of the indicated compounds [1, 5, 10 μM]. […]

For another test, the target named is T5, HDAC8 (Homo sapiens, UniProt Q9BY41).
T5 sequence (Q9BY41 1-377): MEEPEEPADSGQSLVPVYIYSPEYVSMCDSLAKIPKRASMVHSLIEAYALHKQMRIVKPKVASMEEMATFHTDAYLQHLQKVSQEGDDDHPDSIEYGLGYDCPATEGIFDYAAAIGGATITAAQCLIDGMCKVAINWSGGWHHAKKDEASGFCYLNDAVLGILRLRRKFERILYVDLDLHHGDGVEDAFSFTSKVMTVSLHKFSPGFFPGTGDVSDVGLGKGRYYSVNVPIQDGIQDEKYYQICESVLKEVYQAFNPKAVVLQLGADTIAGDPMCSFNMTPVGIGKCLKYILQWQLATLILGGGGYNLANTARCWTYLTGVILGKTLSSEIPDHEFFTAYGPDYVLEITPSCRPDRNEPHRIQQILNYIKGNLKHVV
Nature of the test: biochemical. On the set-up: in vitro inhibition of purified HDAC isozymes, dose response. As to the method:
as §1

T1 sequence (O15379 whole entry): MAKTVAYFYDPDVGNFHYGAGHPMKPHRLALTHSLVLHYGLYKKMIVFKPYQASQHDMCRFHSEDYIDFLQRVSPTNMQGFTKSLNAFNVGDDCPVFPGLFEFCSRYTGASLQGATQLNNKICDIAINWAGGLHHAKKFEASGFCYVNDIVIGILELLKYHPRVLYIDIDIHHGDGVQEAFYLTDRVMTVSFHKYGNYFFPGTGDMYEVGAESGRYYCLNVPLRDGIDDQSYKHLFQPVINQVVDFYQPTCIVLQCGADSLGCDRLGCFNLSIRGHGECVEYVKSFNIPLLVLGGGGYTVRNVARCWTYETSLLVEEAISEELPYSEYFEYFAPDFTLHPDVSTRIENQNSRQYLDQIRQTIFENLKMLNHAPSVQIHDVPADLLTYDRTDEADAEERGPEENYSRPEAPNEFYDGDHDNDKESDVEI
HDAC4, sequence (P56524 648-1057 limits assumed): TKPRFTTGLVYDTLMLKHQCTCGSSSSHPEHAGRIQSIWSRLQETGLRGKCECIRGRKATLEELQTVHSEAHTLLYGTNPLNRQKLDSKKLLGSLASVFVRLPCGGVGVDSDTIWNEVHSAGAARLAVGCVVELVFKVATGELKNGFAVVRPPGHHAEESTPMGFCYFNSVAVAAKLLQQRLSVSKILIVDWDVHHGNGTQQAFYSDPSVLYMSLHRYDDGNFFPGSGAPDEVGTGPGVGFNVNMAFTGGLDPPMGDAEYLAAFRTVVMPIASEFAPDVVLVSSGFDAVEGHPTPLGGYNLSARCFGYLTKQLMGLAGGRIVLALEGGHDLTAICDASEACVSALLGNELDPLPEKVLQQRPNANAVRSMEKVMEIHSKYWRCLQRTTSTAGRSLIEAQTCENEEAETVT
T3 sequence (Q92769 whole entry): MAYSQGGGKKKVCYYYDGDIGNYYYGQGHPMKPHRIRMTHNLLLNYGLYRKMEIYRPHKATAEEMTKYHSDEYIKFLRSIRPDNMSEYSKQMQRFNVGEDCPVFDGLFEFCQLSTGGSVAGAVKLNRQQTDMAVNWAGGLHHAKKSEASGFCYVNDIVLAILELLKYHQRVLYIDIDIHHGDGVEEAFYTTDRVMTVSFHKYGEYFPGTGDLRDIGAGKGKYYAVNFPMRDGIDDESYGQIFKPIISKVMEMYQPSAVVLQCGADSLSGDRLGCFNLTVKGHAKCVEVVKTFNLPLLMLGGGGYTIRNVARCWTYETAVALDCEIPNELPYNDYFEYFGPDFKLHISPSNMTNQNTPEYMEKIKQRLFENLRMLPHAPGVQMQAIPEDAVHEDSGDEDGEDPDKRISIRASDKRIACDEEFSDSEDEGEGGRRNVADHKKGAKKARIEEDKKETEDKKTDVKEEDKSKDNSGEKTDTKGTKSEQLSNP
T2 sequence (Q13547 whole entry): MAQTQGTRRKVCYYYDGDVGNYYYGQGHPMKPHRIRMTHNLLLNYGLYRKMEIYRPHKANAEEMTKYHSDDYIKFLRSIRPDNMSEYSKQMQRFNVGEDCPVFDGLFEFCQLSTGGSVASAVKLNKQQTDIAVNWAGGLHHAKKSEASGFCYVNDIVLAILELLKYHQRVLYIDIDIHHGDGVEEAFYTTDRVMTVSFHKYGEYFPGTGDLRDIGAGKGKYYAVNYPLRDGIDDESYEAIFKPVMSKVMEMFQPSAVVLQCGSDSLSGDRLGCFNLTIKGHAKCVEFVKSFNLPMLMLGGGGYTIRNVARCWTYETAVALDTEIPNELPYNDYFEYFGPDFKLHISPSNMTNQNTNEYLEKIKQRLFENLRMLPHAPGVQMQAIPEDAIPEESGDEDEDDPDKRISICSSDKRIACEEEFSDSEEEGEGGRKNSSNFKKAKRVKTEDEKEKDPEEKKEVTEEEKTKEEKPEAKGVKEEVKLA

One may read the IC50 as the point on the concentration scale where inhibition reaches its midpoint. For `Nc1ccccc1NC(=O)CCCCCC(=O)Nc1cccc(C(F)(F)F)c1` [NKL54, N-(2-aminophenyl)-N'-[3-(trifluoromethyl)phenyl]heptanediamide], the IC50 on HDAC3 was 47 ± 2 nM; against HDAC1 it was 84 ± 4 nM; on HDAC2, 176 ± 5 nM; against HDAC4, 35000 nM; at HDAC6, > 50000 nM; on HDAC8 it was > 50000 nM.
